Assays:
[1] = tested on: MBP-FALDR enzyme (maltose binding protein-fatty aldehyde reductase fusion protein); experiment: Continuous spectrophotometric assay of fatty aldehyde reductase activity (NADPH oxidation at 340 nm), substrate comparison and kinetics; type: biochemical, Marinobacter aquaeolei VT8
Procedure: For Fatty Aldehyde Continuous Spectrophotometric Assay Development, all assays were performed in a sealed quartz cuvette with a 1 cm path length. The cuvette and solutions were first degassed with argon on a manifold to remove oxygen from the headspace and solutions. Substrates were initially disbursed into a buffer solution containing BSA at a concentration of 0.5 mg/mL by sonication for three ten second intervals using a microtip sonicator (Branson, Danbury, Conn.). The initial assay for pH optimization included a buffer of 100 mM MOPS, 100 mM MES, and 100 mM TAPS. For reduction assays, 75 μL of a 2 mg/mL NADPH stock was added to bring the initial concentration of NADPH in the cuvette to approximately 200 μM, and an approximate absorbance at 340 nm of 1.2 based on the reported extinction coefficient of 6220 M^−1 cm^−1 for NADPH. In all assays, the reaction was run for at least two minutes with the NADPH and substrate present, prior to the addition of any enzyme, to obtain a background oxidation rate of the NADPH. […] A linear fit of the data was then used to establish the rate, and the initial background rate was subtracted, to determine the rate associated with substrate reduction by the MBP-FALDR enzyme.
Having established that the MBP-FALDR would utilize NADPH as a substrate, it was possible to employ a continuous spectrophotometric assay to monitor substrate reduction rates based on the loss of absorbance at 340 nm when NADPH is oxidized to NADP^+. Using this assay, it was possible to establish the pH dependence of the reduction reaction. The rate of reaction was highest at pH 6.3, with a steep increase in activity going from 8.0 to 6.3. The rate at 6.3 was only slightly greater than at 6.5 ([…]). Several factors had to be considered in establishing the optimal pH of the assay. The first was the background oxidation of the NADPH without any MBP-FALDR enzyme present. […] The assays were run under an argon atmosphere to minimize oxidation of the NADPH by O2. A further consideration was the rapid degradation that occurs at the lowest pH values. […] So, for standard assays used here, a pH of 6.5 was selected, where the activity was minimally affected by slight variations in pH. The following discussion is useful in understanding some features and benefits of the various embodiments of the invention:
Utilizing the continuous assay to monitor MBP-FALDR activity, the dependence of rate on substrate concentration was determined for all of the commercially available substrates described above. Each assay was repeated multiple times to confirm the results from each single determination. The results obtained for cis-11-hexadecenal are shown in FIG. 2 and are representative of the results obtained for repeated determinations and for the other substrates. […] In addition, several factors could limit the observed activity. All of the substrates tested have limited solubility in aqueous solutions, and must first be suspended in solution via sonication. Even under these conditions, it is likely that the substrates exist inside micelles. The sonication process utilized here could result in the partial degradation of the substrate over time. Additionally, the suspension of the substrate in solution is only temporary, and the substrate slowly separates from aqueous solution. Due to these limitations, the measured activity is likely to be an underestimate of the actual activity. In the cell, the enzyme and substrate are likely associated with the hydrophobic membranes. […] It was also observed that the MBP-FALDR enzyme was unstable over time, even when stored at 4° C., losing as much as 50% of the activity over a period of a week. Though the purification is quite rapid, it is uncertain how much activity is lost during preparation. […]

MBP-FALDR enzyme [2] = experiment: Initial assessment of activity: overnight reaction with NADPH/NADH or NADP+, GC/GC-MS analysis; type: biochemical, Marinobacter aquaeolei VT8
Procedure: For initial assessment of the activity of the purified MBP-FALDR enzyme, 50 μg of purified MBP-FALDR protein was added to a reaction mixture containing 100 mM of Tris buffer at pH 7.9, 100 mM NaCl, 2.4 mM of either NADPH or NADH as a reductant, and decanal, oleic acid, and hexadecanol as possible substrates. The assays were run under an argon atmosphere in septa sealed vials overnight at room temperature with constant gentle mixing. The products of the reactions were then extracted from the buffer by adding an equal volume of hexane and organic layer components were analyzed by gas chromatography equipped with a flame ionization detector (Forte HT5 column (SGE Analytical Science, Austin, Tex.), 30 meter by 0.32 mm inner diameter with 0.5 μm film thickness, with argon as a carrier and a temperature ramp from 60° C. to 360° C. increasing at 10° C. per minute). Samples containing new peaks not present in a control sample were also run through a gas chromatograph equipped with a mass spectrometer (Shimadzu GC-2010 and GCMS-QP2010S) to assign the identity of the product.
Preliminary experiments were run with the MBP-FALDR enzyme to probe possible substrates by mixing either NADH or NADPH with an aldehyde (decanal), alcohol (hexadecanol) or fatty acid (oleic acid) and then looking for changes in concentration of one or more of the potential substrates by GC analysis. The assays were allowed to run overnight in a sealed vial under an atmosphere of argon to maintain the reduced forms of the nicotinamide coenzymes. […] This initial result pointed to the likelihood that the MBP-FALDR enzyme is an NADPH-dependent fatty aldehyde reductase, and further experiments were run to characterize this activity. […] The activity of medium chain alcohol dehydrogenases from a broad range of species show rates of oxidation of alcohols that are 10% of the rates of the reduction of the corresponding aldehyde, so it is possible that this rate is too low to detect.

MBP-FALDR enzyme [3] = experiment: Reversibility and cofactor test, spectrophotometric at 340 nm (NADP+, NADH, NAD+); type: biochemical, Marinobacter aquaeolei VT8; conditions: NADH with decanal, NAD+ with decanol, in place of NADPH/NADP+
Text: When the assay was used to check for activity with NADH in place of NADPH, NADH was substituted for NADPH at the same concentration as was used for NADPH, and the assay run as described above. Reactions using either NADP^+ or NAD^+ also used the same concentration, but it followed the increase in absorbance monitored at 340 nm. Once the pH optimum was established for the enzyme, TAPS and MOPS were removed from the buffer, and only MES was used.
To test the possible reversibility of the fatty aldehyde reducatase enzyme comprising the amino acid sequence of SEQ ID NO: 2, the oxidation of a number of alcohols to the corresponding aldehyde using NADP^+ as the oxidant were tested. These tests were performed with the MBP-FALDR enzyme. In these assays, the increase in absorbance at 340 nm was followed. Under no conditions did any reduction of NADP^+ occur in the presence of the fatty alcohols tested. As a control, the alcohol dehydrogenase from Thermoanaerobium brokii was followed with 2-propanol and the same stock of NADP^+ to confirm the integrity of the assay.

MBP-FALDR fusion protein = experiment: Inhibition of decanal reduction by MBP-FALDR in the presence of NADPH; type: biochemical, Marinobacter aquaeolei VT8; conditions: at the two concentrations tested
Procedure: For Fatty Aldehyde Continuous Spectrophotometric Assay Development, all assays were performed in a sealed quartz cuvette with a 1 cm path length. The cuvette and solutions were first degassed with argon on a manifold to remove oxygen from the headspace and solutions. Substrates were initially disbursed into a buffer solution containing BSA at a concentration of 0.5 mg/mL by sonication for three ten second intervals using a microtip sonicator (Branson, Danbury, Conn.). The initial assay for pH optimization included a buffer of 100 mM MOPS, 100 mM MES, and 100 mM TAPS. For reduction assays, 75 μL of a 2 mg/mL NADPH stock was added to bring the initial concentration of NADPH in the cuvette to approximately 200 μM, and an approximate absorbance at 340 nm of 1.2 based on the reported extinction coefficient of 6220 M^−1 cm^−1 for NADPH. In all assays, the reaction was run for at least two minutes with the NADPH and substrate present, prior to the addition of any enzyme, to obtain a background oxidation rate of the NADPH.
Finally, the ability of decanol to inhibit reduction of decanal was also tested.
Referring again to Table 2, the inhibition assays were run in 100 mM MES buffer pH 6.5 with 200 μM NADPH, 250 μM decanal and 125 μg of MBP-FALDR fusion protein. All compounds were dissolved in buffer except dipyridyl, which was dissolved in dimethyl sulfoxide (DMSO).

[4] = Decanal reduction after Factor Xa removal of maltose binding protein; type: biochemical; conditions: MBP removed by Factor Xa cleavage
Procedure: Since all the assays were conducted with the MBP-FALDR fusion protein, a principle concern was whether the fusion protein accurately represented the activity of the wild-type fatty aldehyde reducatase enzyme comprising the amino acid sequence of SEQ ID NO: 2. To examine whether the maltose binding protein affected the activity of the wild-type fatty aldehyde reducatase enzyme comprising the amino acid sequence of SEQ ID NO: 2, the maltose binding protein was removed from the N-terminus of the fatty aldehyde reducatase enzyme comprising the amino acid sequence of SEQ ID NO: 2 by Factor Xa cleavage. The near complete cleavage of maltose binding protein was verified by SDS-PAGE. This cleavage is facilitated by the incorporation of a factor Xa cleavage site (Ile-Glu-Gly-Arg) just upstream of the EcoRI site of the pMAL-c2x vector.

Molecule	substrate activity in words ([1]; compared with decanal, substrate 100 μg/mL)	activity (substrate reduction rate) ([1]; substrate 100 μg/mL, 160 μg enzyme) [nmol/min/mg]	Relative Activity (Percent of Decanal) ([1]; substrate 100 μg/mL, 160 μg enzyme, decanal = 85 nmols/min/mg = 100)	Km ([1]; substrate of MBP-FALDR, Michaelis-Menten fit, NADPH, FIG. 2 substrate is cis-11-hexadecenal) [µM]	substrate conversion by GC (MBP-FALDR enzyme [2]; with NADPH, overnight, argon, room temperature, new peak confirmed as decanol by MS)	activity over background with NADH or NAD+ (MBP-FALDR enzyme [3])	inhibition of decanal reduction (MBP-FALDR fusion protein) [%]	reverse reaction: aldehyde production by GC (MBP-FALDR enzyme [2]; with NADP+)	rate of substrate reduction versus MBP-FALDR fusion protein [4]
CCCCCCCCCC=O [Decanal]	highest activity of the substrates tested	85	100% of Decanal	~100	decrease in the decanal peak	no indication of activity over background			
CCCCCCCCCCO [decanol]						no indication of activity over background	~45	no detectable levels	
cleaved fatty aldehyde reducatase enzyme: fatty aldehyde reductase of SEQ ID NO: 2 freed from MBP by Factor Xa cleavage (protein, Marinobacter aquaeolei VT8) MAIQQVHHADTSSSKVLGQLRGKRVLITGTTGFLGKVVLERLIRAVPDIGAIYLLIRGNKRHPDARSRFLEEIATSSVFDRLREADSEGFDAFLEERIHCVTGEVTEAGFGIGQEDYRKLATELDAVINSAASVNFREELDKALAINTLCLRNIAGMVDLNPKLAVLQVSTCYVNGMNSGQVTESVIKPAGEAVPRSPDGFYEIEELVRLLQDKIEDVQARYSGKVLERKLVDLGIREANRYGWSDTYTFTKWLGEQLLMKALNGRTLTILRPSIIESALEEPAPGWIEGVKVADAIILAYAREKVTLFPGKRSGIIDVIPVDLVANSIILSLAEALGEPGRRRIYQCCSGGGNPISLGEFIDHLMAESKANYAAYDHLFYRQPSKPFLAVNRALFDLVISGVRLPLSLTDRVLKLLGNSRDLKMLRNLDTTQSLATIFGFYTAPDYIFRNDELMALANRMGEVDKGLFPVDARLIDWELYLRKIHLAGLNRYALKERKVYSLKTARQRKKAA									did not reveal any loss or improvement
